Converted amounts (≈) assume the structure as drawn. *1 amine or outer side, *2 acyl side, *3 side chain or, on linkers, in order; H or OH if unused. Where a SMILES comes first, the peptide text is derived from it. [ ]: non-standard residue; d: D form. The star is where a group is joined. X2 = CCC(=O)C[C@@H](O)C[C@@H](C)C[C@H](N[*:1])C(=O)[*:2]; X1 = CCC(=O)/C=C/C[C@@H](C)C[C@H](N[*:1])C(=O)[*:2]; Alaψ(CH2NMeCH2CH2OH) = C[C@@H](CN(C)CCO)N*; Decanoyl(2R-Me) = CCCCCCCC[C@@H](C)C(=O)*; Aib = CC(C)(N)C(=O)O

The values that follow come from ChEMBL document CHEMBL1158611, “Trichoderins, novel aminolipopeptides from a marine sponge-derived Trichoderma sp., are active against dormant mycobacteria” (2010).

Test [1] concerns Mycobacterium tuberculosis. The test can be described thus: Antimycobacterial activity against Mycobacterium bovis BCG under aerobic condition. It counts as functional. The following applies: variant bovis BCG.
The subject of test [2] is Mycobacterium tuberculosis. Kind of test: Antimycobacterial activity against Mycobacterium bovis BCG under dormancy-inducing hypoxic condition. It counts as functional. Particulars: variant bovis BCG.

Regarding `NNC(=O)c1ccncc1` [ISONIAZID], the minimal inhibitory concentration (MIC) in test [1] was 0.03 µg/mL (≈ 0.219 µM); in test [2], above 100 µg/mL.
With `CCCCCCCC[C@@H](C)C(=O)N1CCC[C@H]1C(=O)N[C@@H](C[C@H](C)C[C@H](O)CC(=O)CC)C(=O)NC(C)(C)C(=O)NC(C)(C)C(=O)N[C@H](C(=O)N[C@H](C(=O)NC(C)(C)C(=O)NC(C)(C)C(=O)N[C@@H](C)CN(C)CCO)C(C)C)C(C)C` [TRICHODERIN B] ({Decanoyl(2R-Me)}-P[X2][Aib][Aib]VV[Aib][Aib]-{Alaψ(CH2NMeCH2CH2OH)}), the minimum inhibitory concentration (MIC) in test [1] and in test [2] was 0.02 µg/mL (≈ 0.0174 µM) throughout.
Consider `CCCCCCCC[C@@H](C)C(=O)N1CCC[C@H]1C(=O)N[C@@H](C[C@H](C)C/C=C/C(=O)CC)C(=O)NC(C)(C)C(=O)NC(C)(C)C(=O)N[C@H](C(=O)N[C@H](C(=O)NC(C)(C)C(=O)NC(C)(C)C(=O)N[C@@H](C)CN(C)CCO)C(C)C)[C@@H](C)CC` [TRICHODERIN A1] ({Decanoyl(2R-Me)}-P[X1][Aib][Aib]IV[Aib][Aib]-{Alaψ(CH2NMeCH2CH2OH)}), for which the minimal inhibitory concentration (MIC) in test [1] and in test [2] was 0.16 µg/mL (≈ 0.14 µM) throughout.
Take `CCCCCCCC[C@@H](C)C(=O)N1CCC[C@H]1C(=O)N[C@@H](C[C@H](C)C[C@H](O)CC(=O)CC)C(=O)NC(C)(C)C(=O)NC(C)(C)C(=O)N[C@H](C(=O)N[C@H](C(=O)NC(C)(C)C(=O)NC(C)(C)C(=O)N[C@@H](C)CN(C)CCO)C(C)C)[C@@H](C)CC` [TRICHODERIN A] ({Decanoyl(2R-Me)}-P[X2][Aib][Aib]IV[Aib][Aib]-{Alaψ(CH2NMeCH2CH2OH)}): the MIC in test [1] and in test [2] was 0.02 µg/mL (≈ 0.0172 µM) each time.
